Data taken from PubChem BioAssay AID624444 (Broad Institute, 2012).
Calls of active or inactive are those of the source.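 How the source made its calls: active means fitted curve reaches 35% signal loss at a dose no higher than twice the top tested dose; inconclusive means flat fit with 30 to 70% loss, or poor fit; inactive means the rest.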

These compounds were tested on 26S proteasome chymotrypsin-like activity (human) (assay: proteasome chymotrypsin-like activity inhibition in cells, dose response, mechanism study for HSF1 activator project, U2OS cells, luminescence, dry powder (AID 624444)). Details: Proteasome-Glo chymotrypsin luminescence.

AC35 | SMILES
35.4 µM | O=C(Nc1nc(SCc2ccccc2)ns1)C1CCC1
26 µM | Cc1ccccc1CSc1nnc(N)s1

Same assay, conditions: Proteasome-Glo chymotrypsin luminescence, at 38 µM (top of the series)

activity change, negative = inhibition | SMILES
-9.05% (inactive) | Nc1nc(SCc2ccccc2Cl)ns1
-11% (inactive) | Nc1nc(SCc2ccccc2)ns1
-3.56% (inactive) | Cc1ccccc1CSc1nsc(N)n1
19.2% (inactive) | Cc1ccccc1CSc1n[nH]c(N)n1
3.69% (inactive) | Cc1cccc(CSc2nsc(N)n2)c1

Second part, the compound before the results:

SMILES | activity change, negative = inhibition
O=C(Nc1nc(SCc2ccccc2)ns1)C1CC=CCC1 (configuration not stated) | -29.4% (inactive)
Nc1nc(SCc2ccc(Cl)cc2Cl)ns1 | 41.7% (inactive)
O=C(Nc1ccccc1)Nc1nc(SCc2ccccc2)ns1 | -37.2% (inactive)
Nc1nc(SCc2ccc(F)cc2)ns1 | -32% (inactive)
Nc1nc(S(=O)(=O)Cc2ccccc2)ns1 | -9% (inactive)
